The values below come from PMC5513444, “The synthesis and evaluation of triazolopyrimidines as anti-tubercular agents” (Bioorganic & Medicinal Chemistry, 2017).

SMILES strings stand for the structures. Converted amounts (≈) assume the structure as drawn.

One data set concerns M. tuberculosis H37Rv. The experiment in a line: MIC90 against M. tuberculosis in liquid medium. It counts as cell-based, Mycobacterium tuberculosis. Conditions: liquid medium 7H9-Tw-OADC, aerobic, 5 days, average ± SD of two independent experiments; for MIC90: Mycobacterium tuberculosis, H37RV, 120 h, read-out: MIC (MIC90, minimum concentration required to inhibit growth of M. tuberculosis by 90%).

The next data set has as its system HepG2 cells. Description: Cytotoxicity against HepG2 cell line (CellTiter-Glo). It counts as cell-based. Conditions: for Selectivity index (SI) = IC50/MIC90: HepG2 IC50 / M. tuberculosis MIC90; for IC50: Homo sapiens, 48 h, HepG2, 2 days incubation, read-out: IC50 (concentration required to reduce the viability of HepG2 cells by 50%). A general note: In ATP-based viability assays light output follows the ATP content of the culture.

Turning to `COc1ccc(CCNc2cc(-c3ccccc3)nc3ncnn23)cc1` [Compound 1, N-(4-methoxyphenethyl)-5-phenyl-[1,2,4]triazolo[1,5-a]pyrimidin-7-amine], in the data set on M. tuberculosis H37Rv, the MIC90 was found to be 3.1 µM (≈ 1.07 µg/mL) and the “MIC (MIC90, minimum concentration required to inhibit growth of M. tuberculosis by 90%)” value is 3.1 ± 1.3 µM. Also, in the data set on HepG2 cells, the “Selectivity index (SI) = IC50/MIC90” value is reported as over 32 and the IC50 was over 100 µM.
Usually melting point stands for the temperature, or range, at which the solid turns liquid. In turn, `COc1ccc(CCNc2cc(-c3ccc(OC)cc3)nc3ncnn23)cc1` [Compound 7, N-(4-Methoxyphenethyl)-5-(4-methoxyphenyl)-[1,2,4]triazolo[1,5-a]pyrimidin-7-amine] returned a melting point of 130 to 131 °C. Moreover, the MIC90 with M. tuberculosis H37Rv is over 20 µM. Moreover, the IC50 in the data set on HepG2 cells was over 100 µM.
The compound `COc1ccc(CCNc2cc(-c3ccccc3OC)nc3ncnn23)cc1` [Compound 8, N-(4-Methoxyphenethyl)-5-(2-methoxyphenyl)-[1,2,4]triazolo[1,5-a]pyrimidin-7-amine] came in with a melting point of 148 to 149 °C. Further, the MIC90 in the data set on M. tuberculosis H37Rv was over 20 µM. In addition, the IC50 with HepG2 cells was determined as 87 µM.
For `COc1ccc(CCNc2cc(-c3ccc(C)cc3)nc3ncnn23)cc1` [Compound 9, N-(4-Methoxyphenethyl)-5-(p-tolyl)-[1,2,4]triazolo[1,5-a]pyrimidin-7-amine], in that order: 155 to 156 °C, over 20 µM and 37 µM.
Turning to `CCc1ccc(-c2cc(NCCc3ccc(OC)cc3)n3ncnc3n2)cc1` [Compound 10, 5-(4-Ethylphenyl)-N-(4-methoxyphenethyl)-[1,2,4]triazolo[1,5-a]pyrimidin-7-amine], in the data set with M. tuberculosis H37Rv, the MIC90 is over 20 µM. In addition, the IC50 in the data set with HepG2 cells was over 100 µM.
In the case of `COc1ccc(CCNc2cc(-c3ccc(Cl)cc3)nc3ncnn23)cc1` [Compound 11, 5-(4-Chlorophenyl)-N-(4-methoxyphenethyl)-[1,2,4]triazolo[1,5-a]pyrimidin-7-amine], the melting point fell in the range of 178 to 180 °C. Moreover, in the data set with M. tuberculosis H37Rv, the MIC90 is over 20 µM. The IC50 with HepG2 cells was 65 µM.
In the case of `COc1ccc(CCNc2cc(-c3ccccc3Cl)nc3ncnn23)cc1` [Compound 12, 5-(2-Chlorophenyl)-N-(4-methoxyphenethyl)-[1,2,4]triazolo[1,5-a]pyrimidin-7-amine], the MIC90 in the data set on M. tuberculosis H37Rv is over 20 µM. Also, the IC50 with HepG2 cells was over 100 µM.
`COc1ccc(CCNc2cc(-c3ccc(F)cc3)nc3ncnn23)cc1` [Compound 13, 5-(4-Fluorophenyl)-N-(4-methoxyphenethyl)-[1,2,4]triazolo[1,5-a]pyrimidin-7-amine] returned a melting point of 153 to 155 °C. In the data set on M. tuberculosis H37Rv, the MIC90 was 4.4 ± 2 µM (≈ 1.6 µg/mL). Also, the IC50 with HepG2 cells is 89 µM.
Turning to `COc1ccc(CCNc2cc(-c3ccccc3F)nc3ncnn23)cc1` [Compound 14, 5-(2-Fluorophenyl)-N-(4-methoxyphenethyl)-[1,2,4]triazolo[1,5-a]pyrimidin-7-amine], the melting point lay in the range of 153 to 155 °C. Moreover, the MIC90 in the data set on M. tuberculosis H37Rv was 3 ± 0.21 µM (≈ 1.09 µg/mL). In the data set on HepG2 cells, the “Selectivity index (SI) = IC50/MIC90” value is listed as over 30 and the IC50 was over 100 µM.
`COc1ccc(CCNc2cc(-c3ccc(C(F)(F)F)cc3)nc3ncnn23)cc1` [Compound 15, N-(4-Methoxyphenethyl)-5-(4-(trifluoromethyl)phenyl)-[1,2,4]triazolo[1,5-a]pyrimidin-7-amine] gave a melting point of 191 to 193 °C. The MIC90 in the data set with M. tuberculosis H37Rv was over 20 µM. Also, the IC50 in the data set on HepG2 cells was over 100 µM.
For `COc1ccc(CCNc2cc(-c3cccnc3)nc3ncnn23)cc1` [Compound 17, N-(4-Methoxyphenethyl)-5-(pyridin-3-yl)-[1,2,4]triazolo[1,5-a]pyrimidin-7-amine], in that order: 152 to 153 °C, over 20 µM and over 100 µM.
For `COc1ccc(CCNc2cc(-c3ccncc3)nc3ncnn23)cc1` [Compound 18, N-(4-Methoxyphenethyl)-5-(pyridin-4-yl)-[1,2,4]triazolo[1,5-a]pyrimidin-7-amine], in that order: 217 to 219 °C, over 20 µM and 69 µM.
For `COc1ccc(CCNc2cc(Cc3ccccc3)nc3ncnn23)cc1` [Compound 19, 5-Benzyl-N-(4-methoxyphenethyl)-[1,2,4]triazolo[1,5-a]pyrimidin-7-amine], the melting point is 119 to 121 °C. Further, the MIC90 with M. tuberculosis H37Rv is over 20 µM. The IC50 in the data set with HepG2 cells amounted to 57 µM.
`COc1ccc(CCNc2cc(C)nc3ncnn23)cc1` [Compound 20, N-(4-Methoxyphenethyl)-5-methyl-[1,2,4]triazolo[1,5-a]pyrimidin-7-amine] registered a melting point of 129 to 130 °C. Also, the MIC90 with M. tuberculosis H37Rv is over 20 µM. For the same compound, the IC50 in the data set with HepG2 cells was over 100 µM.
`CCc1cc(NCCc2ccc(OC)cc2)n2ncnc2n1` [Compound 21, 5-ethyl-N-(4-methoxyphenethyl)-[1,2,4]triazolo[1,5-a]pyrimidin-7-amine] came in with a melting point of 70 to 72 °C. In addition, in the data set on M. tuberculosis H37Rv, the MIC90 was over 20 µM. Moreover, the IC50 in the data set with HepG2 cells is over 100 µM.
For the compound `COc1ccc(CCNc2cc(C3CC3)nc3ncnn23)cc1` [Compound 22], in the data set on M. tuberculosis H37Rv, the MIC90 worked out at 5.8 ± 1.6 µM (≈ 1.79 µg/mL). Also, in the data set with HepG2 cells, the “Selectivity index (SI) = IC50/MIC90” value is recorded as over 17 and the IC50 is over 100 µM.
With `COc1ccc(CCNc2cc(C3CCC3)nc3ncnn23)cc1` [Compound 23, 5-Cyclobutyl-N-(4-methoxyphenethyl)-[1,2,4]triazolo[1,5-a]pyrimidin-7-amine], the melting point lay in the range of 99 to 100 °C. Moreover, the MIC90 in the data set with M. tuberculosis H37Rv stood at 2.9 ± 0.71 µM (≈ 0.938 µg/mL). In the data set with HepG2 cells, the “Selectivity index (SI) = IC50/MIC90” value is over 34 and the IC50 was over 100 µM.
For `COc1ccc(CCNc2cc(C3CCCC3)nc3ncnn23)cc1` [Compound 24, 5-Cyclopentyl-N-(4-methoxyphenethyl)-[1,2,4]triazolo[1,5-a]pyrimidin-7-amine], in that order: 99 to 100 °C, 5.5 ± 0.07 µM (≈ 1.86 µg/mL), 17 and 95 µM.
As for `FC(F)(F)c1ccc(CCNc2cc(-c3ccccn3)nc3ncnn23)cc1` [Compound 58, 5-(Pyridin-2-yl)-N-(4-(trifluoromethyl)phenethyl)-[1,2,4]triazolo[1,5-a]pyrimidin-7-amine], in the data set with M. tuberculosis H37Rv, the MIC90 was 0.98 ± 0.4 µM (≈ 0.377 µg/mL). Moreover, in the data set with HepG2 cells, the “Selectivity index (SI) = IC50/MIC90” value is recorded as over 119 and the IC50 was over 100 µM.
For `Clc1ccc(CCNc2cc(-c3ccccn3)nc3ncnn23)cc1` [Compound 60, N-(4-Chlorophenethyl)-5-(pyridin-2-yl)-[1,2,4]triazolo[1,5-a]pyrimidin-7-amine] the same measures were 0.76 ± 0.25 µM (≈ 0.267 µg/mL), over 135 and over 100 µM.
Consider `COc1ccc(C2CCCN(c3cc(-c4ccccn4)nc4ncnn34)C2)cc1` (stereo not drawn) [Compound 63, 7-(3-(4-Methoxyphenyl)piperidin-1-yl)-5-(pyridin-2-yl)-[1,2,4]triazolo[1,5-a]pyrimidine], for which, in the data set on M. tuberculosis H37Rv, the MIC90 is over 20 µM. For the same compound, the IC50 in the data set with HepG2 cells was 16 µM.
For `COc1ccc(C2CN(c3cc(-c4ccccn4)nc4ncnn34)CCO2)cc1` (stereo not drawn) [Compound 64, 2-(4-Methoxyphenyl)-4-(5-(pyridin-2-yl)-[1,2,4]triazolo[1,5-a]pyrimidin-7-yl)morpholine] the same measures were over 20 µM and 50 µM.
